The values below come from patent USRE30241E, “Esters of 3-(hydroxy or hydroxymethyl)-4-hydroxyphenyl aminomethyl ketones” (Sterling Drug Inc., priority 1970, dated 1980).

Data set [1] concerns guinea pig bronchioles constricted by carbachol. In words: Bronchodilator Test Method II, in vitro perfused guinea pig lung. On the procedure:
In this method bronchodilator activity in vitro was determined by testing the effect of graded doses of the test compounds on guinea pig bronchioles constricted by carbachol, using the technique reported by Sollman and von Oettingen, Proc. Soc, Exp. Biol. Med., 25,692 (1928) as modified by Tainter, Pedden, and James, J. Pharm. Exp. Ther., 51, 371 (1934) and by Luduena, von Euler, Tullar, and Lands, Arch. intern. Pharmacol., III, 392 (1957).

A short description of data set [2]: Solubility and pH of salts.
For data set [3], the system named is carbachol- or histamine-induced bronchoconstriction. In words: Bronchodilator Test Method I, anesthetized dog, intravenous activity. It counts as in vivo. The settings on record: Canis lupus familiaris, read-out: Bronchodilatation; for inhibition in vivo at 0.0005 mg/kg: 0.5 mcg/kg i.v.; for inhibition in vivo at 0.006 mg/kg: 6.0 mcg/kg i.v.; for inhibition in vivo at 0.025 mg/kg: 25 mcg/kg i.v.; for inhibition in vivo at 0.1 mg/kg: 100 mcg/kg i.v. In short, it runs like this:
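Pentobarbital-anesthetized (30 mg/kg i.v.), open-chest, artificially ventilated dogs were given i.v. carbachol (4-6 µg/kg) or histamine diphosphate (35-45 µg/kg). Test compound was given i.v. mixed with, after, or 1-10 min before the constrictor.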

Data set [4] shares this test system. In words: Bronchodilator Test Method I, anesthetized dog, intraduodenal activity. The settings on record: Canis lupus familiaris, read-out: Bronchodilation; for inhibition in vivo at 0.005 mg/kg: 5 mcg/kg (salt) intraduodenal; for inhibition in vivo at 0.04 mg/kg: 40 mcg/kg (salt) intraduodenal; for inhibition in vivo at 0.16 mg/kg: 160 mcg/kg (salt) intraduodenal. It counts as in vivo. The gist of the method: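 Pentobarbital-anesthetized (30 mg/kg i.v.) open-chest dogs of 9-18 kg, artificially ventilated; airway pressure recorded via tracheal cannula transducer. Test solution injected intraduodenally; from 5 min, i.v. carbachol (4-6 μg/kg) or histamine diphosphate (35-45 μg/kg) challenges every 30-60 min gauged degree and duration of bronchodilation.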

In a further data set the test system is heart rate. In words: Cardiovascular studies: effect on the heart rate in the anesthetized dog. It counts as in vivo. On the procedure: The effect of a rapid intravenous injection on the heart rate the heart rate was conducted in anesthetized dogs under normal respiration. A few open-chest dogs were also tested. Increase in heart rate was measured by using an electrocardiograph attached to the dog. Readings were taken every 0.5-1 minute for the first 10 minutes and every 2-5 minutes thereafter until recovery. In some cases, several doses and more than one compound were tested alternately in the same dog. The blood pressure effect was simultaneously recorded.

Structures can show the parent of a compound that is named as a salt. Where two headings read alike, the source gives them in different places.

As to `CCC(C)CC(=O)Oc1ccc(C(O)CNC(C)(C)C)cc1OC(=O)CC(C)CC.Cl` (stereo not drawn) [Example 6, 3,4-bis(3-methylpentanoyloxy)-alpha-(tert-butylaminomethyl)benzyl alcohol hydrochloride], the ED50 in data set [1] (carbachol (Doryl) 1:5 million) is 1.3 µg (base). Also, the “Duration, Mean” value in data set [1] (dose 3.2 mcg (base)) stood at 43 ± 3.7 min. In data set [2] (water), the solubility is at least 50 mg/mL.
`CC(C)CC(=O)Oc1cc(C(O)CNC(C)(C)C)ccc1OC(=O)C(C)(C)C.Cl` (stereo not drawn) [Example 71, 3-(isovaleryloxy)-4-(pivalyloxy)-alpha-(tert-butylaminomethyl)benzylalcohol hydrochloride]: the ED50 in data set [1] (carbachol (Doryl) 1:5 million) was 0.63 µg (base). Also, in data set [1] (dose 2 mcg (base)), the “Duration, Mean” value is recorded as 26 min. The solubility in data set [2] (water) is at least 50 mg/mL.
For the molecule `CC(C)(C)NCC(=O)c1ccc(OC(=O)C(C)(C)C)c(OC(=O)C(C)(C)C)c1.Cl` [3,4-bis(pivalyloxy)phenyl tert-butylaminomethyl ketone hydrochloride], the solubility in data set [2] (water) was at least 10 mg/mL.
`CCCC(=O)Oc1ccc(C(O)CNC(C)(C)C)cc1OC(=O)CCC.Cl` (stereo not drawn) [Example 1, 3,4-bis(butyryloxy)-alpha-(tert-butylaminomethyl)benzyl alcohol hydrochloride]: the ED50 in data set [1] (carbachol (Doryl) 1:5 million) is 0.23 µg (base). Moreover, the “Duration, Mean” value in data set [1] (dose 0.5 mcg (base)) is listed as 9 ± 1.0 min. For the same molecule, the “pH of a 1 percent aqueous solution” value in data set [2] (1 percent aqueous solution of the salt) is 6.0. Also, in data set [2] (1 percent aqueous solution, N/10 sodium hydroxide to pH 7.0), the “precipitation on raising pH to 7.0” value was “a precipitate formed”. Further, the solubility in data set [2] (water) was at least 200 mg/mL.
As to `COc1ccc(C(=O)Oc2cc(C(O)CNC(C)(C)C)ccc2OC(C)=O)cc1` (stereo not drawn) [Example 149, 3-(p-anisoyloxy)-4-acetoxy-alpha-(tert-butylaminomethyl)benzyl alcohol methanesulfonate], the inhibition in vivo at 0.0005 mg/kg in data set [3] (5 min, 5 min) worked out at 54%; in data set [3] (0.5 h, 30 min) it was 19%; in data set [3] (1 h, 60 min) it was 19%. The inhibition in vivo at 0.006 mg/kg in data set [3] (5 min, 5 min) was found to be 100%; in data set [3] (0.5 h, 30 min), 32%; in data set [3] (1 h, 60 min) it was 24%. Also, the inhibition in vivo at 0.005 mg/kg in data set [4] (5 min, 5 min) was 0%; in data set [4] (0.5 h, 30 min), 7%; in data set [4] (1 h, 60 min), 13%; in data set [4] (2 h, 120 min) it was 5%; in data set [4] (3 h, 180 min), 9%; in data set [4] (4 h, 240 min), 0%. Further, the inhibition in vivo at 0.04 mg/kg in data set [4] (5 min, 5 min) came out at 78%; in data set [4] (0.5 h, 30 min), 52%; in data set [4] (1 h, 60 min), 44%; in data set [4] (2 h, 120 min), 31%; in data set [4] (4 h, 240 min), 35%; in data set [4] (5 h, 300 min), 35%. The inhibition in vivo at 0.16 mg/kg in data set [4] (5 min, 5 min) is 72%; in data set [4] (0.5 h, 30 min), 61%; in data set [4] (1 h, 60 min), 56%; in data set [4] (2 h, 120 min) it was 11%; in data set [4] (3 h, 180 min), 22%; in data set [4] (4 h, 240 min) it was 23%. In addition, the ED50 in data set [1] (Doryl conc. 1:10 million) is 0.91 µg (base). Also, the “Duration, Mean” value in data set [1] (dose 2 mcg (base), Doryl conc. 1:10 million) was determined as 13.2 ± 1.9 min. Moreover, the figures for the “Mean Maximal Increase in the Heart Rate” value in the data set with heart rate (0.8 mcg/kg (salt) i.v.), in the data set with heart rate (6.4 mcg/kg (salt) i.v.) and with heart rate (32 mcg/kg (salt) i.v.) were 19 Beats/Minute, 47 Beats/Minute and 70 Beats/Minute, respectively.
`Cc1cccc(C(=O)Oc2ccc(C(O)CNC(C)(C)C)cc2O)c1` (stereo not drawn) [Example 139, 3-hydroxy-4-(m-toluyloxy)-alpha-(tert-butylaminomethyl)benzyl alcohol methanesulfonate]: the inhibition in vivo at 0.025 mg/kg in data set [3] (5 min, 5 min) is 81%; in data set [3] (0.5 h, 30 min), 22%; in data set [3] (1 h, 60 min) it was 24%; in data set [3] (2 h, 120 min), 0%. Moreover, the inhibition in vivo at 0.1 mg/kg was found to be 74% in data set [3] (5 min, 5 min); 63% in data set [3] (0.5 h, 30 min); 22% in data set [3] (1 h, 60 min); 25% in data set [3] (2 h, 120 min); 9% in data set [3] (3 h, 180 min); 10% in data set [3] (5 h, 300 min). Besides, the ED50 in data set [1] (carbachol (Doryl) 1:5 million) is 2.64 µg (base). The “Duration, Mean” value in data set [1] (dose 6 mcg (base)) came out at 29.8 ± 4.4 min. Besides, the “Mean Maximal Increase in the Heart Rate” value with heart rate (5 mcg/kg (salt) i.v.) is 6 Beats/Minute; in the data set with heart rate (25 mcg/kg (salt) i.v.), 28 Beats/Minute; in the data set with heart rate (50 mcg/kg (salt) i.v.) it was 35 Beats/Minute.
As to `COc1ccc(C(=O)Oc2ccc(C(O)CNC(C)(C)C)cc2OC(=O)c2ccc(OC)cc2)cc1.Cl` (stereo not drawn) [Example 33, 3,4-bis(p-anisoyloxy)-alpha-(tert-butylaminomethyl)benzyl alcohol hydrochloride], in data set [1] (carbachol (Doryl) 1:5 million), the ED50 was 6.9 µg (base). The “Duration, Mean” value in data set [1] (dose 10 mcg (base)) stood at 32 ± 5 min. Moreover, the “precipitation on dilution with three volumes of water” value in data set [2] (1 percent solution in dimethyl sulfoxide) and in data set [2] (1 percent solution in glycerol formal) was “no precipitate formed” in each case. In addition, the solubility in data set [2] (polyethyleneglycol 200, organic solvent or mixture) was below 10 mg/mL.
Regarding `CCCC(C)(C)C(=O)Oc1ccc(C(O)CNC(C)(C)C)cc1OC(=O)C(C)(C)CCC` (stereo not drawn) [Example 8, 3,4-bis(2,2-dimethylpentanoyloxy)-alpha-(tert-butylaminomethyl)benzyl alcohol], in data set [2] (water), the solubility is at least 50 mg/mL.
Still for that read-out and setting: next, `Cc1ccc(C(=O)Oc2ccc(C(=O)CNC(C)(C)C)cc2OC(=O)c2ccc(C)cc2)cc1` [3,4-bis(p-toluyloxy)phenyl tert-butylaminomethyl ketone hydrochloride]: below 1 mg/mL.
Regarding `CC(C)CC(=O)Oc1ccc(C(O)CNC(C)(C)C)cc1O` (stereo not drawn) [Example 58, 3-hydroxy-4-(isovaleryloxy)-alpha-(tert-butylaminomethyl)benzyl alcohol methanesulfonate], the ED50 in data set [1] (carbachol (Doryl) 1:5 million) is 1.4 µg (base). For the same molecule, the “Duration, Mean” value in data set [1] (dose 2.4 mcg (base)) is recorded as 12 ± 2.5 min. In addition, the solubility in data set [2] (water) is at least 50 mg/mL.
Take `Cc1ccc(C(=O)Oc2ccc(C(O)CNC(C)(C)C)cc2O)cc1` (stereo not drawn) [Example 69, 3-hydroxy-4-(p-toluyloxy)-alpha-(tert-butylaminomethyl)benzyl alcohol methanesulfonate]: the solubility in data set [2] (water) was at least 50 mg/mL.

Broadly, the solubility is the dissolved amount per volume that the medium holds.
